US10047069B2, “Compositions comprising an inhibitor of lysine specific demethylase-1” (Celgene Quanticel Research, Inc., priority 2015, dated 2018)
Converted amounts (≈) assume the structure as drawn.

How the values were obtained:
Assay type in all cases: physicochemical
[1] = Gravimetric vapor sorption (GVS); conditions: 25° C.
Description: Sorption isotherms were obtained using a SMS DVS Intrinsic moisture sorption analyzer, controlled by DVS Intrinsic Control software v1.0.1.2 (or v 1.0.1.3). The sample temperature was maintained at 25° C. by the instrument controls. The humidity was controlled by mixing streams of dry and wet nitrogen, with a total flow rate of 200 ml/min. The relative humidity was measured by a calibrated Rotronic probe (dynamic range of 1.0-100% RH), located near the sample. The weight change, (mass relaxation) of the sample as a function of % RH was constantly monitored by the microbalance (accuracy±0.005 mg). Approximately 13 mg of sample was placed in a tared mesh stainless steel basket under ambient conditions. The sample was loaded and unloaded at 40% RH and 25° C. (typical room conditions). A moisture sorption isotherm was performed as outlined below (two scans giving one complete cycle). The standard isotherm was performed at 25° C. at 10% RH intervals over a 0%-90% RH range. Data analysis was carried out using Microsoft Excel using DVS Analysis Suite v6.2 (or 6.1 or 6.0). The sample was recovered after completion of the isotherm and re-analyzed by XRPD.

[2] = Thermodynamic solubility in FeSSIF; conditions: for solubility at 24 h / Solubility in FeSSiF: fed state simulated intestinal fluid (FeSSIF), equilibrated at 25° C. for 24 hours; for XRPD of residue: residue of the FeSSIF solubility test, analysed by XRPD as a damp solid
Description: Solubility was determined by suspending sufficient compound in fed state simulated intestinal fluid (FeSSIF) to give a maximum final concentration of >3 mg/ml of the parent free-form of the compound. The suspension was equilibrated at 25° C. for 24 hours then the pH was measured. The suspension was then filtered through a glass fibre C filter. The residue was analysed by XRPD as a damp solid. The filtrate was diluted by an appropriate factor prior to analysis by HPLC. Quantitation by HPLC was performed with reference to a standard solution of approximately 0.2 mg/ml in DMSO. Different volumes of the standard, diluted and undiluted sample solutions were injected. The solubility was calculated using the peak areas determined by integration of the peak found at the same retention time as the principal peak in the standard injection. Analysis was performed on an Agilent HP1100 series system equipped with a diode array detector and using ChemStation software vB.04.03.

[3] = Stability post-storage at 40° C./75% RH assessed by XRPD; conditions: for Stability post-storage at 40° C./75% RH: form change assessed by XRPD
Description: (§1) Representative samples for the twenty-six forms were further analysed by NMR/IC and DSC. The stability of the samples after storage at 40° C./75% RH was also assessed by XRPD. Solubility in FeSSIF media was determined for selected samples. […] IC was employed to determine the molar equivalence for inorganic counterions, sulphate and phosphate.

[4] = Thermal stability from onset of DSC events; conditions: onsets of DSC events greater than 200° C.
Description: DSC data were collected on a Mettler DSC 823E equipped with a 34 position auto-sampler. The instrument was calibrated for energy and temperature using certified indium. Typically, 0.9-6 mg of each sample, in a pin-holed aluminum pan, was heated at 10° C./min from 25° C. to 350° C. A nitrogen purge at 50 ml/min was maintained over the sample. The instrument control and data analysis software was STARe v12.1.
The twenty remaining forms have thermal events occurring from as low as ˜30° C. These may be solvated/hydrated forms.

[5] = Salt screen assessment compared to the HCl salt
Description: as §1

Row | Compound | uptake at 90% RH by GVS [1] [%] | solubility at 24 h ([2]; 25 °C, pH 4.9, fessif, thermodynamic from solid) [µg/mL] | solubility at 24 h ([2]; pH 4.9, thermodynamic from solid) [µg/mL] | XRPD of residue [2] | Stability after 14 days storage at 40° C./75% RH ([3]; 14 days, confirmed by XRPD) | Stability post-storage at 40° C./75% RH [3] | thermal stability [4] | stability and solubility when compared to the HCl salt [5] | Solubility in FeSSiF [2] [mg/mL]
1 | COc1ccc(-c2c(-c3ccc(C#N)c(F)c3)nc(N3CCC(N)CC3)n(C)c2=O)cc1F.Cl [HCL 1, 4-[2-(4-aminopiperidin-1-yl)-5-(3-fluoro-4-methoxyphenyl)-1-methyl-6-oxo-1,6-dihydropyrimidin-4-yl]-2-fluorobenzonitrile hydrochloride] | 14 | 740 | 750 | Amorphous | Partial crystallization of a new form | Extra peaks observed |  |  | 
2 | COc1ccc(-c2c(-c3ccc(C#N)c(F)c3)nc(N3CCC(N)CC3)n(C)c2=O)cc1F [PHOA 1, 4-[2-(4-aminopiperidin-1-yl)-5-(3-fluoro-4-methoxyphenyl)-1-methyl-6-oxo-1,6-dihydropyrimidin-4-yl]-2-fluorobenzonitrile] |  |  |  | Amorphous |  | No form change | good thermal stability | improved stability and solubility | 0.74 (≈ 1640 µM)
3 | COc1ccc(-c2c(-c3ccc(C#N)c(F)c3)nc(N3CCC(N)CC3)n(C)c2=O)cc1F [SO4 1, 4-[2-(4-aminopiperidin-1-yl)-5-(3-fluoro-4-methoxyphenyl)-1-methyl-6-oxo-1,6-dihydropyrimidin-4-yl]-2-fluorobenzonitrile] |  |  |  | Amorphous |  | No form change | good thermal stability | improved stability and solubility | 0.72 (≈ 1590 µM)
4 | COc1ccc(-c2c(-c3ccc(C#N)c(F)c3)nc(N3CCC(N)CC3)n(C)c2=O)cc1F [pTSA 1, 4-[2-(4-aminopiperidin-1-yl)-5-(3-fluoro-4-methoxyphenyl)-1-methyl-6-oxo-1,6-dihydropyrimidin-4-yl]-2-fluorobenzonitrile] |  |  |  | pTSA 1 |  | No form change | good thermal stability | improved stability and solubility | 0.87 (≈ 1930 µM)
